Where a name gives a salt, the structure may show the parent alone.
Experiments:
[1] = test system: cholesterol biosynthesis; assay: Inhibition of cholesterol biosynthesis (method of J. Biol. Chem. 234, 2835 (1959)); assay type: biochemical
[2] = test system: 3-hydroxy-3-methylglutaryl-coenzyme A reductase; conditions: competing with the rate-limiting enzyme HMG-CoA reductase; J. Antibiotics 29, 1346 (1976); cited from earlier work
[3] = test system: serum cholesterol levels; conditions: animals; J. Antibiotics 29, 1346 (1976); cited from earlier work

SMILES	concentration required to inhibit cholesterol biosynthesis by 50% [1] [µg/mL]	inhibition of the biosynthesis of cholesterol by enzymes or cultured cells [2]	serum cholesterol levels [3]
CC[C@H](C)C(=O)O[C@H]1CC=CC2=C[C@@H](O)[C@H](C)[C@H](CC[C@@H]3C[C@@H](O)CC(=O)O3)[C@H]21 [IsoM-4' lactone]	0.013		
CC[C@H](C)C(=O)O[C@H]1CC=CC2=C[C@@H](O)[C@H](C)[C@H](CC[C@@H](O)C[C@@H](O)CC(=O)OC)[C@H]21 [IsoM-4' methyl ester]	0.007		
CC[C@H](C)C(=O)O[C@H]1C[C@H](O)C=C2C=C[C@H](C)[C@H](CC[C@@H](O)C[C@@H](O)CC(=O)OC)[C@H]21 [M-4 methyl ester]	0.001		
CC[C@H](C)C(=O)O[C@H]1C[C@H](O)C=C2C=C[C@H](C)[C@H](CC[C@@H](O)C[C@@H](O)CC(=O)O)[C@H]21 [M-4 sodium salt]	0.0008		
CC[C@H](C)C(=O)O[C@H]1C[C@@H](O)C=C2C=C[C@H](C)[C@H](CC[C@@H](O)C[C@@H](O)CC(=O)O)[C@H]21 [M-4' sodium salt]	0.00049		
CCC(C)C(=O)OC1CCC=C2C=CC(C)C(CCC3CC(O)CC(=O)O3)C21 (centres unmarked) [ML-236B]	0.01	inhibit the biosynthesis of cholesterol	significantly reduces serum cholesterol levels of animals

Source: US4410629A, “ML-236B Derivatives and their preparation” (Sankyo Company Limited, priority 1980, dated 1983)
